# Assay results published in patent publication US20240034729A9, “HETEROCYCLIC COMPOUND, INTERMEDIATE, PREPARATION METHOD THEREFOR AND APPLICATION THEREOF” (WUHAN LL SCIENCE AND TECHNOLOGY DEVELOPMENT CO., LTD., priority 2018, published 2024).
# Like-named read-outs stand apart in the source and are kept apart here.
# What was measured:
# [1] = In vitro metabolic stability, rat liver microsome; type: in vitro ADME; details: liver microsomes, 1 mg/mL liver microsome protein, 37° C., NA = essentially not metabolized, read-out: T1/2 in rat liver microsome
# Method: (§1) The in vitro metabolic stability of the compounds disclosed herein was determined through incubation of liver microsomes of various species. […] At each time point, 100 μL of the reaction mixture was added into a centrifuge tube containing 400 μL of internal standard working solution (containing a 200 ng/mL solution of dexamethasone, diclofenac, tolbutamide and labetalol in acetonitrile) precooled at 0° C. so as to terminate the reaction, and the mixture was then centrifuged at 10,000 g for 10 min at 4° C. The supernatant was collected for LC-MS assay so as to obtain the values of in vitro metabolic half-life of the test compounds in liver microsomes of various species.
# [2] = In vitro metabolic stability, human liver microsome; type: in vitro ADME; details: liver microsomes, 1 mg/mL liver microsome protein, 37° C., NA = essentially not metabolized, read-out: T1/2 in human liver microsome
# Method: as §1
# [3] = In vitro metabolic stability, guinea pig liver microsome; type: in vitro ADME; details: liver microsomes, 1 mg/mL liver microsome protein, 37° C., NA = essentially not metabolized, read-out: T1/2 in guinea pig liver microsome
# Method: The in vitro metabolic stability of the compounds disclosed herein was determined through incubation of liver microsomes of various species. A proper amount of test compound was added into a liver microsome reaction system (1 mg/mL liver microsome protein, 25 U/mL glucose-6 phosphate dehydrogenase, 1 mM NADP, 6 mM D-glucose 6-phosphate and 5 mM MgCl2), and then the mixture was incubated in a water bath kettle at 37° C. to start the reaction. At each time point, 100 μL of the reaction mixture was added into a centrifuge tube containing 400 μL of internal standard working solution (containing a 200 ng/mL solution of dexamethasone, diclofenac, tolbutamide and labetalol in acetonitrile) precooled at 0° C. so as to terminate the reaction, and the mixture was then centrifuged at 10,000 g for 10 min at 4° C. The supernatant was collected for LC-MS assay so as to obtain the values of in vitro metabolic half-life of the test compounds in liver microsomes of various species.
# [4] = In vitro cytotoxicity assay, CCK-8 method; type: cell-based; details: human, HepG2 cells
# Method: In vitro cytotoxicity assay for the compounds disclosed herein was performed in HepG2 cells using the CCK-8 method. HepG2 cells (Beina Bio) in the logarithmic growth phase were collected, the concentration of cell suspension was adjusted, and then the cells were plated on a 96-well cell culture plate at 50,000 cells/well. The cells were then incubated overnight in a cell incubator of 5% […] at 37° C., and after 80-90% cell confluence was achieved, test compounds or vehicle (DMSO) at various concentration gradients were added after medium change. The plate was incubated in a cell incubator of 5% […] at 37° C. for 48 h. After the treatment, the medium in the plate was discarded. The plate was washed twice with PBS, added with CCK-8 working solution (Beyotime) at 100 μL per well, and then incubated at 37° C. for 1.5 h away from light. Absorbance at OD450nm was measured for each well on a microplate reader, and CC50 value of each compound was analyzed and calculated.
# [5] = biological target: hP2X3 (human purinergic P2X receptor subtype 3) (Homo sapiens (Human), UniProt P56373); assay: FLIPR calcium assay, hP2X3 expressed in HEK293 cells; type: cell-based; details: read-out: P2X3 IC50
# Sequence of hP2X3 (human purinergic P2X receptor subtype 3) (P56373 whole entry): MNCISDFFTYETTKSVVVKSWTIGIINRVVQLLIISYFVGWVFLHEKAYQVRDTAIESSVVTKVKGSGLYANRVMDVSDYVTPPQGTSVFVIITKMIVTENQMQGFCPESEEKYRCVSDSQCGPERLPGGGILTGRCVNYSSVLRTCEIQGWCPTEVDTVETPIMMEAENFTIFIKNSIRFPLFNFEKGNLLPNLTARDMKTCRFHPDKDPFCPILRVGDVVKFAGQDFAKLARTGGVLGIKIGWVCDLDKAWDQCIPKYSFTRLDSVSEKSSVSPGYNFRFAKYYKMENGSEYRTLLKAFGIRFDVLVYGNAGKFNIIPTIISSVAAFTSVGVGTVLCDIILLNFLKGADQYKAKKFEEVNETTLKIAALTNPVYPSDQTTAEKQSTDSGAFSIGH
# [6] = biological target: hP2X2/3 (heterodimeric receptors formed by human purinergic P2X receptors subtype 2 and subtype 3) (Homo sapiens (Human), UniProt P56373+Q9UBL9); assay: FLIPR calcium assay, hP2X2/3 expressed in HEK293 cells (P2X2/3 receptor selectivity); type: cell-based; details: for IC50: HEK293 cells expressing hP2X2/3, agonist BZ-ATP 5 μM, unit inferred
# Sequence of hP2X2/3 (heterodimeric receptors formed by human purinergic P2X receptors subtype 2 and subtype 3) (P56373 whole entry): as above
# Sequence of hP2X2/3 (heterodimeric receptors formed by human purinergic P2X receptors subtype 2 and subtype 3) (Q9UBL9 whole entry): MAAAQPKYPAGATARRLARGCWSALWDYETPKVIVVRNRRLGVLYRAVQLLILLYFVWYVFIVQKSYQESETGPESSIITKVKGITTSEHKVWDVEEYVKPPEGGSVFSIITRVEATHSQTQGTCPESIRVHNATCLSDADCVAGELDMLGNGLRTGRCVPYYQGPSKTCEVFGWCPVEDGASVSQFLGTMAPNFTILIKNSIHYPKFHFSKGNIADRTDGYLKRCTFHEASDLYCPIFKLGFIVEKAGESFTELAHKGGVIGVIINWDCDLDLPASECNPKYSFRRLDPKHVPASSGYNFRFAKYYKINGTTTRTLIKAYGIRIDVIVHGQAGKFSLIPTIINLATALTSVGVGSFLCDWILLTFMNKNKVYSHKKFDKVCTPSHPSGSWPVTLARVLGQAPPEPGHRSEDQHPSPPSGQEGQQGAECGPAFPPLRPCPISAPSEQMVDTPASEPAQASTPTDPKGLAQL
Compound,half-life [1] [h],half-life [2] [h],half-life [3] [h],CC50 at 48 h [4] [µM],IC50 [5] [µM],Folds of selectivity [6],IC50 [6] [µM],"IC50 ([5]; HEK293 cells expressing hP2X3, agonist BZ-ATP 2.5 μM, class symbols) [µM]"
"COC(=O)N1CCO[C@@H](Cc2c(-c3c(F)cc(-n4ccnc4)cc3F)nc3cc(C)ccn23)C1 [Compound 5, methyl (S)-2-((2-(2,6-difluoro-4-(1H-imidazol-1-yl)phenyl)-7-methylimidazo[1,2-a]pyridin-3-yl)methyl)morpholine-4-carboxylate]",0.622,10.8,0.794,72,,,,
"COC(=O)N1CCO[C@@H](Cc2c(-c3ccc(S(N)(=O)=O)cc3C(F)(F)F)nc3cc(C)ccn23)C1 [Compound 189, methyl (S)-2-((7-methyl-2-(4-sulfamoyl-2-(trifluoromethyl)phenyl)imidazo[1,2-a]pyridin-3-yl)methyl)morpholine-4-carboxylate]",,2.41,,,0.01,,,
"COC(=O)N1CCO[C@@H](Cc2c(-c3c(F)cc(S(C)(=O)=O)cc3F)nc3cc(C)ccn23)C1 [Compound 175, methyl (S)-2-((2-(2,6-difluoro-4-(methylsulfonyl)phenyl)-7-methylimidazo[1,2-a]pyridin-3-yl)methyl)morpholine-4-carboxylate]",> 0.5,> 0.5,> 0.5,,> 10,,,
"COC(=O)N1CCO[C@@H](Cc2c(-c3c(F)cc(-c4ncco4)cc3F)nc3cc(C)ccn23)C1 [Compound 10, methyl (S)-2-((2-(2,6-difluoro-4-(oxazol-2-yl)phenyl)-7-methylimidazo[1,2-a]pyridin-3-yl)methyl)morpholine-4-carboxylate]",0.513,3.71,0.225,15.8,,,,
"CC(=O)N1CCO[C@@H](Cc2c(-c3c(F)cc(S(N)(=O)=O)cc3F)nc3cc(Cl)ccn23)C1 [Compound 174, (S)-4-(3-((4-acetylmorpholin-2-yl)methyl)-7-chloroimidazo[1,2-a]pyridin-2-yl)-3,5-difluorobenzenesulfonamide]",6.64,,18.5,> 200,0.0016,,,
"COC(=O)N1CCO[C@@H](Cc2c(-c3cc(F)c(S(N)(=O)=O)cc3Cl)nc3cc(Cl)ccn23)C1 [Compound 181, methyl (S)-2-((7-chloro-2-(2-chloro-5-fluoro-4-sulfamoylphenyl)imidazo[1,2-a]pyridin-3-yl)methyl)morpholine-4-carboxylate]",3.13,23.3,3.91,138,0.0018,,,
"COC(=O)N1CCO[C@@H](Cc2c(-c3c(F)cc(-c4cccs4)cc3F)nc3cc(C)ccn23)C1 [Compound 12, methyl (S)-2-((2-(2,6-difluoro-4-(thiophen-2-yl)phenyl)-7-methylimidazo[1,2-a]pyridin-3-yl)methyl)morpholine-4-carboxylate]",0.13,1.53,0.126,52.7,,,,
"COC(=O)N1CCO[C@@H](Cc2c(-c3c(F)cc(-c4cccn4C)cc3F)nc3cc(C)ccn23)C1 [Compound 13, methyl (S)-2-((2-(2,6-difluoro-4-(1-methyl-1H-pyrrol-2-yl)phenyl)-7-methylimidazo[1,2-a]pyridin-3-yl)methyl)morpholine-4-carboxylate]",0.0373,1.03,0.0375,66.5,,,,
"COC(=O)N1CCO[C@@H](Cc2c(-c3ccc(S(N)(=O)=O)cc3C)nc3cc(C)ccn23)C1 [Compound 184, methyl (S)-2-((7-methyl-2-(2-methyl-4-sulfamoylphenyl)imidazo[1,2-a]pyridin-3-yl)methyl)morpholine-4-carboxylate]",0.0943,406,2.89,> 200,0.0056,,,
"COC(=O)N1CCO[C@@H](Cc2c(-c3c(F)cc(S(N)(=O)=O)cc3Cl)nc3cc(C)ccn23)C1 [Compound 177, methyl (S)-2-((2-(2-chloro-6-fluoro-4-sulfamoylphenyl)-7-methylimidazo[1,2-a]pyridin-3-yl)methyl)morpholine-4-carboxylate]",,5.41,,,0.0011,,,
"COC(=O)N1CCO[C@@H](Cc2c(-c3c(F)cc(NC(=O)CCC(=O)O)cc3F)nc3cc(C)ccn23)C1 [Compound 25, (S)-4-((3,5-difluoro-4-(3-((4-(methoxycarbonyl)morpholin-2-yl)methyl)-7-methylimidazo[1,2-a]pyridin-2-yl)-phenyl)-amino)-4-oxobutanoic acid]",3.8,4.97,,> 100,< 0.01,A (key: A: folds of selectivity >1000; B: 200< folds of selectivity ≤1000; C: folds of selectivity ≤200),> 60,
"CC(=O)N1CCO[C@@H](Cc2c(-c3c(F)cc(S(N)(=O)=O)cc3F)nc3cc(C)ccn23)C1 [Compound 173, (S)-4-(3-((4-acetylmorpholin-2-yl)methyl)-7-methylimidazo[1,2-a]pyridin-2-yl)-3,5-difluorobenzenesulfonamide]",1.69,,10.8,> 200,0.0018,18811,33.9,
"COC(=O)N1CCO[C@@H](Cc2c(-c3ccc(S(N)(=O)=O)cc3Cl)nc3cc(C)ccn23)C1 [Compound 176, methyl (S)-2-((2-(2-chloro-4-sulfamoylphenyl)-7-methylimidazo[1,2-a]pyridin-3-yl)methyl)morpholine-4-carboxylate]",0.0602,3.93,1.02,> 200,0.0075,,,
"COC(=O)N1CCO[C@@H](Cc2c(-c3c(F)cc(-c4ccco4)cc3F)nc3cc(C)ccn23)C1 [Compound 11, methyl (S)-2-((2-(2,6-difluoro-4-(furan-2-yl)phenyl)-7-methylimidazo[1,2-a]pyridin-3-yl)methyl)morpholine-4-carboxylate]",0.0942,2.52,0.0712,79.4,,,,
"COC(=O)N1CCO[C@@H](Cc2c(-c3c(F)cc(N4C(=O)CCC4=O)cc3F)nc3cc(C)ccn23)C1 [Compound 26, methyl (S)-2-((2-(4-(2,5-dioxopyrrolidin-1-yl)-2,6-difluorophenyl)-7-methylimidazo[1,2-a]pyridin-3-yl)methyl)morpholine-4-carboxylate]",1.35,4.22,2.13,> 100,,,,0.05 to 0.2
"COC(=O)N1CCO[C@@H](Cc2c(-c3ccc(S(N)(=O)=O)cc3Cl)nc3cc(Cl)ccn23)C1 [Compound 178, methyl (S)-2-((7-chloro-2-(2-chloro-4-sulfamoylphenyl)imidazo[1,2-a]pyridin-3-yl)methyl)morpholine-4-carboxylate]",,20.6,,,0.0001,,,
"COC(=O)N1CCO[C@@H](Cc2c(-c3c(F)cc(S(N)(=O)=O)cc3F)nc3cc(C)c(F)cn23)C1 [Compound 182, methyl (S)-2-((2-(2,6-difluoro-4-sulfamoylphenyl)-6-fluoro-7-methylimidazo[1,2-a]pyridin-3-yl)methyl)morpholine-4-carboxylate]",0.182,3.62,1.02,> 200,0.0035,,,
